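Interpolation was linear, between the two tested concentrations surrounding the appropriate level; five concentrations were tested over 48 hours in 96-well plates. TGI marks complete inhibition of growth.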
How the values were obtained:
Assay in all cases: NCI anticancer screen, dose series, 48 h
HCT-15 colon = tested on: HCT-15 colon
M14 melanoma = tested on: M14 melanoma
K-562 leukemia = tested on: K-562 leukemia
IGROV1 ovarian = tested on: IGROV1 ovarian
LOX IMVI melanoma = tested on: LOX IMVI melanoma
SK-OV-3 ovarian = tested on: SK-OV-3 ovarian
SF-295 CNS = tested on: SF-295 CNS
LXFL 529 NSCLC = tested on: LXFL 529 NSCLC
MALME-3M melanoma = tested on: MALME-3M melanoma
COLO 205 colon = tested on: COLO 205 colon
A549 NSCLC = tested on: A549 NSCLC
786-0 renal = tested on: 786-0 renal
SF-268 CNS = tested on: SF-268 CNS
OVCAR-8 ovarian = tested on: OVCAR-8 ovarian
KM20L2 colon = tested on: KM20L2 colon
NCI-H460 lung = tested on: NCI-H460 lung
HCC-2998 colon = tested on: HCC-2998 colon
SK-MEL-2 melanoma = tested on: SK-MEL-2 melanoma
TK-10 renal = tested on: TK-10 renal
SN12C renal = tested on: SN12C renal
SNB-19 CNS = tested on: SNB-19 CNS
DMS 273 small cell lung = tested on: DMS 273 small cell lung
UACC-62 melanoma = tested on: UACC-62 melanoma
HOP-62 NSCLC = tested on: HOP-62 NSCLC
HCT-116 colon = tested on: HCT-116 colon
NCI-H23 lung = tested on: NCI-H23 lung
SW-620 colon = tested on: SW-620 colon
HOP-18 NSCLC = tested on: HOP-18 NSCLC
UACC-257 melanoma = tested on: UACC-257 melanoma
U251 CNS = tested on: U251 CNS
HT29 colon = tested on: HT29 colon
CAKI-1 renal = tested on: CAKI-1 renal
SNB-75 CNS = tested on: SNB-75 CNS
SNB-78 CNS = tested on: SNB-78 CNS
NCI-H522 lung = tested on: NCI-H522 lung
M19-MEL melanoma = tested on: M19-MEL melanoma
HOP-92 NSCLC = tested on: HOP-92 NSCLC
SK-MEL-5 melanoma = tested on: SK-MEL-5 melanoma
UO-31 renal = tested on: UO-31 renal
MOLT-4 leukemia = tested on: MOLT-4 leukemia
OVCAR-5 ovarian = tested on: OVCAR-5 ovarian
SK-MEL-28 melanoma = tested on: SK-MEL-28 melanoma
CCRF-CEM leukemia = tested on: CCRF-CEM leukemia
RXF 393 renal = tested on: RXF 393 renal
EKVX NSCLC = tested on: EKVX NSCLC
OVCAR-4 ovarian = tested on: OVCAR-4 ovarian
ACHN renal = tested on: ACHN renal
SR leukemia = tested on: SR leukemia
RPMI-8226 leukemia = tested on: RPMI-8226 leukemia
NCI-H226 lung = tested on: NCI-H226 lung
SF-539 CNS = tested on: SF-539 CNS
XF 498 CNS = tested on: XF 498 CNS
OVCAR-3 ovarian = tested on: OVCAR-3 ovarian
KM12 colon = tested on: KM12 colon
HL-60(TB) leukemia = tested on: HL-60(TB) leukemia
DLD-1 colon = tested on: DLD-1 colon

SMILES: COc1ccc(-c2csc(=[N+]3CCCCC3)s2)cc1
- TGI (HCT-15 colon): > 100 µM
- TGI (M14 melanoma): > 100 µM
- TGI (K-562 leukemia): 24.2 µM
- TGI (IGROV1 ovarian): > 100 µM
- TGI (LOX IMVI melanoma): > 100 µM
- TGI (SK-OV-3 ovarian): 17.6 µM
- TGI (SF-295 CNS): 8.73 µM
- TGI (LXFL 529 NSCLC): 26.9 µM
- TGI (MALME-3M melanoma): 13.1 µM
- TGI (COLO 205 colon): 2.85 µM
- TGI (A549 NSCLC): > 100 µM
- TGI (786-0 renal): > 100 µM
- TGI (SF-268 CNS): 23.5 µM
- TGI (OVCAR-8 ovarian): > 100 µM
- TGI (KM20L2 colon): 24 µM
- TGI (NCI-H460 lung): 44.8 µM
- TGI (HCC-2998 colon): > 100 µM
- TGI (SK-MEL-2 melanoma): 16.6 µM
- TGI (TK-10 renal): > 100 µM
- TGI (SN12C renal): > 100 µM
- TGI (SNB-19 CNS): > 100 µM
- TGI (DMS 273 small cell lung): 13.3 µM
- TGI (UACC-62 melanoma): 24.1 µM
- TGI (HOP-62 NSCLC): 8.06 µM
- TGI (HCT-116 colon): 27.8 µM
- TGI (NCI-H23 lung): 6.58 µM
- TGI (SW-620 colon): > 100 µM
- TGI (HOP-18 NSCLC): 83 µM
- TGI (UACC-257 melanoma): 26.6 µM
- TGI (U251 CNS): > 100 µM
- TGI (HT29 colon): 29.9 µM
- TGI (CAKI-1 renal): 8.42 µM
- TGI (SNB-75 CNS): 8.22 µM
- TGI (SNB-78 CNS): > 100 µM
- TGI (NCI-H522 lung): 5.17 µM
- TGI (M19-MEL melanoma): 11.4 µM
- TGI (HOP-92 NSCLC): 7.73 µM
- TGI (SK-MEL-5 melanoma): 4.76 µM
- TGI (UO-31 renal): > 100 µM
- TGI (MOLT-4 leukemia): 10.3 µM
- TGI (OVCAR-5 ovarian): 76.8 µM
- TGI (SK-MEL-28 melanoma): 29.7 µM
- TGI (CCRF-CEM leukemia): 14.6 µM
- TGI (RXF 393 renal): 56.5 µM
- TGI (EKVX NSCLC): > 100 µM
- TGI (OVCAR-4 ovarian): 36.1 µM
- TGI (ACHN renal): > 100 µM
- TGI (SR leukemia): 11.2 µM
- TGI (RPMI-8226 leukemia): 8.36 µM
- TGI (NCI-H226 lung): 9.37 µM
- TGI (SF-539 CNS): 95.3 µM
- TGI (XF 498 CNS): 17.8 µM
- TGI (OVCAR-3 ovarian): 31.6 µM
- TGI (KM12 colon): 18.1 µM
- TGI (HL-60(TB) leukemia): 10.2 µM
- TGI (DLD-1 colon): > 100 µM

Source: PubChem BioAssay (NCI)
